{"source": "ChEMBL document CHEMBL4825684", "about": "“Design, synthesis and biological evaluation of N-anthraniloyl tryptamine derivatives as pleiotropic molecules for the therapy of malignant glioma” (Eur J Med Chem, 2021)", "key": {"U-87 MG [1]": {"tested_on": "U-87 MG", "experiment": "Induction of apoptosis in human U-87 MG cells assessed as viable cells at 2 uM incubated for 48 hrs by Annexin VIM double staining based flow cytometry assay (reference value: 97.8%)", "format": "functional, U-87MG ATCC", "details": "read-out: Activity"}, "U-251 [2]": {"tested_on": "U-251", "experiment": "Antimigratory activity against human U-251 cells assessed as inhibition of migration incubated for 24 hrs by matrigel trans well plate assay", "format": "functional, cell-based", "details": "dose 1-4 µM"}, "C6 [3]": {"tested_on": "C6", "experiment": "Antitumor activity against rat C6 cells inoculated orthotopic Sprague-Dawley rat model assessed as tumor growth inhibition at 50 mg/kg, ip twice a day treated 3 days after tumor cell injection measured for 13 days after tumor implantation", "format": "functional", "details": "72 h, time 3 day, read-out: TGI"}, "C6 [4]": {"tested_on": "C6", "experiment": "Antitumor activity against rat C6 cells inoculated orthotopic Sprague-Dawley rat model assessed as inhibition of angiogenesis brain tissue at 50 mg/kg, ip twice a day administered for 13 days of tumor implantation", "format": "functional, organism-based", "details": "time 13.0 day"}, "[5]": {"experiment": "Plasma concentration in Sprague-Dawley rat at 60 mg/kg, ip measured after 2 hrs by LC-MS analysis", "format": "ADME, organism-based"}, "U-251 [6]": {"tested_on": "U-251", "experiment": "Induction of apoptosis in human U-251 cells assessed as early apoptotic cells at 8 uM incubated for 48 hrs by […] double staining based flow cytometry assay (Rvb+B32 = 0.73%)", "format": "functional"}, "U-251 [7]": {"tested_on": "U-251", "experiment": "Induction of apoptosis in human U-251 cells assessed as necrotic cells at 8 uM incubated for 48 hrs by […] double staining based flow cytometry assay (reference value: 1.32%)", "format": "functional"}, "U-87 MG [8]": {"tested_on": "U-87 MG", "experiment": "Induction of apoptosis in human U-87 MG cells assessed as viable cells at 4 uM incubated for 48 hrs by Annexin VIM double staining based flow cytometry assay (reference value: 97.8%)", "format": "functional, U-87MG ATCC", "details": "read-out: Activity"}, "C6 [9]": {"tested_on": "C6", "experiment": "Antitumor activity against rat C6 cells inoculated orthotopic Sprague-Dawley rat model assessed as reduction tumor weight at 50 mg/kg, ip twice a day treated 3 days after tumor cell injection measured for 13 days after tumor implantation", "format": "functional, organism-based", "details": "time 3.0 day"}, "U-251 [10]": {"tested_on": "U-251", "experiment": "Induction of apoptosis in human U-251 cells assessed as viable cells at 4 uM incubated for 48 hrs by […] double staining based flow cytometry assay (reference value: 96.6%)", "format": "functional", "details": "read-out: Activity"}, "U-87 MG [11]": {"tested_on": "U-87 MG", "experiment": "Induction of apoptosis in human U-87 MG cells assessed as late apoptotic cells at 4 uM incubated for 48 hrs by […] double staining based flow cytometry assay (reference value: 0.61%)", "format": "functional, U-87MG ATCC"}, "[12]": {"experiment": "Cmax in Sprague-Dawley rat at 60 mg/kg, ip measured up to 24 hrs by LC-MS analysis", "format": "ADME, organism-based", "set-up": "route intraperitoneal, dose 60 mg/kg, time <=24", "details": "in vivo"}, "[13]": {"biological_target": "Signal transducer and activator of transcription 3 (Homo sapiens) (UniProt P40763)", "sequence (P40763 whole entry)": "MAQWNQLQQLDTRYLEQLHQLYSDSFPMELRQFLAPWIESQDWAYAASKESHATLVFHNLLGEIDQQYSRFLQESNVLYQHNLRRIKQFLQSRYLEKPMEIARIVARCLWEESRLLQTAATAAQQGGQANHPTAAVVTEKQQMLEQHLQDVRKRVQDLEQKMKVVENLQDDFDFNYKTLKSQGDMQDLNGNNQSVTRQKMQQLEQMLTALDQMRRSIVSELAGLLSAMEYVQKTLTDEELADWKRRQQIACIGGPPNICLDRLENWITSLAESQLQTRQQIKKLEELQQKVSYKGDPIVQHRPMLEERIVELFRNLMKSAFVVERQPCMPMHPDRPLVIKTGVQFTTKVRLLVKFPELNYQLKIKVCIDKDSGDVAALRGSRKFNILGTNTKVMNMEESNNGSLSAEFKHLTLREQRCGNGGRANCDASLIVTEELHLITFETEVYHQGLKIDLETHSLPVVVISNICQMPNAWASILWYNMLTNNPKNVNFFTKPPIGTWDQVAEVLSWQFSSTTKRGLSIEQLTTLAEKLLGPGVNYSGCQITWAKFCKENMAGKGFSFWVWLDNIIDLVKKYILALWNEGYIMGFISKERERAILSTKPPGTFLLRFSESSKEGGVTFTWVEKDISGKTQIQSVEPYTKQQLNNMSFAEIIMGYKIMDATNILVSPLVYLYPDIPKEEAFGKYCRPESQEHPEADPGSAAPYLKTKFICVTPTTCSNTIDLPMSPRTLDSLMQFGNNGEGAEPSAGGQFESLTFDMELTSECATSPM", "experiment": "Inhibition STAT3 phosphorylation in human U-251 cells incubated up to 8 hrs by Western blot analysis", "format": "cell-based", "details": "time hrs <=8"}, "[14]": {"experiment": "Toxicity in rat C6 cells inoculated orthotopic Sprague-Dawley rat model at 50 mg/kg, ip twice a day administered for 25 days", "format": "organism-based", "details": "in vivo, 600 h, time 25 day"}, "U-251 [15]": {"tested_on": "U-251", "experiment": "Induction of apoptosis in human U-251 cells assessed as decrease in Bcl2/Bax ratio at 2 to 4 uM incubated for 48 hrs by Western blot analysis relative to control", "format": "functional, cell-based", "details": "dose 2-4 µM"}, "U-87 MG [16]": {"tested_on": "U-87 MG", "experiment": "Induction of apoptosis in human U-87 MG cells assessed as early apoptotic cells at 8 uM incubated for 48 hrs by […] double staining based flow cytometry assay (reference value: 0.63%)", "format": "functional, U-87MG ATCC"}, "C6 [17]": {"tested_on": "C6", "experiment": "Antitumor activity against rat C6 cells inoculated orthotopic Sprague-Dawley rat model assessed as reduction tumor volume at 50 mg/kg, ip twice a day treated 3 days after tumor cell injection measured for 13 days after tumor implantation", "format": "functional, organism-based", "details": "time 3.0 day"}, "[18]": {"experiment": "Plasma concentration in Sprague-Dawley rat at 60 mg/kg, ip measured up to 24 hrs by LC-MS analysis", "format": "ADME, organism-based"}, "U-251 [19]": {"tested_on": "U-251", "experiment": "Antiproliferative activity against human U-251 cells assessed as growth inhibition incubated for 72 hrs by CCK-8 assay", "format": "functional, cell-based", "details": "U-251, 72 h"}, "U-87 MG [20]": {"tested_on": "U-87 MG", "experiment": "Induction of apoptosis in human U-87 MG cells assessed as early apoptotic cells at 2 uM incubated for 48 hrs by […] double staining based flow cytometry assay (reference value: 0.63%)", "format": "functional, U-87MG ATCC"}, "C6 [21]": {"tested_on": "C6", "experiment": "Antitumor activity against rat C6 cells inoculated orthotopic Sprague-Dawley rat model assessed as increase in rat survival at 50 mg/kg, ip twice a day administered for 25 days (reference value: 16%)", "format": "functional", "details": "time 25 day"}, "U-87 MG [22]": {"tested_on": "U-87 MG", "experiment": "Induction of apoptosis in human U-87 MG cells assessed as increase in cytochrome c release at 1 to 4 uM incubated for 48 hrs by Western blot analysis relative to control", "format": "functional, cell-based", "details": "U-87MG ATCC, dose 1-4 µM"}, "U-87 MG [23]": {"tested_on": "U-87 MG", "experiment": "Induction of apoptosis in human U-87 MG cells assessed as late apoptotic cells at 2 uM incubated for 48 hrs by […] double staining based flow cytometry assay (reference value: 0.61%)", "format": "functional, U-87MG ATCC"}, "U-251 [24]": {"tested_on": "U-251", "experiment": "Antiproliferative activity against human U-251 cells assessed as decrease in proliferation at 4 uM measured after 24 hrs by EdU assay relative to control", "format": "functional, cell-based"}, "BV-2": {"tested_on": "BV-2", "experiment": "Inhibition of MMP9 production in mouse BV-2 cells co-cultured with rat C6 glioma cells at 2 uM incubated for 24 hrs by Western blot analysis", "format": "functional, cell-based"}, "[25]": {"experiment": "Drug uptake in Sprague-Dawley rat cerebrospinal fluid at 60 mg/kg, ip measured after 2 hrs by LC-MS analysis", "format": "ADME, organism-based", "details": "read-out: Drug uptake"}, "U-251 [26]": {"tested_on": "U-251", "experiment": "Induction of apoptosis in human U-251 cells assessed as necrotic cells at 2 uM incubated for 48 hrs by […] double staining based flow cytometry assay (reference value: 1.32%)", "format": "functional"}, "C6 [27]": {"tested_on": "C6", "experiment": "Antiproliferative activity against rat C6 cells assessed as growth inhibition incubated for 72 hrs by CCK-8 assay", "format": "functional, cell-based", "details": "C6, 72 h"}, "C6 [28]": {"tested_on": "C6", "experiment": "Antitumor activity against rat C6 cells inoculated orthotopic Sprague-Dawley rat model assessed as decrease in p-STAT3 in tumor tissue at 50 mg/kg, ip twice a day treated 3 days after tumor cell injection measured for 13 days after tumor implantation by Western blot analysis", "format": "functional, organism-based", "details": "time 3.0 day"}, "U-251 [29]": {"tested_on": "U-251", "experiment": "Reduction in MMP9 expression in human U-251 cells incubated for 24 hrs by Western blot analysis", "format": "functional, cell-based", "details": "dose 1-4 µM"}, "U-251 [30]": {"tested_on": "U-251", "experiment": "Anti-invasion activity against human U-251 cells assessed as inhibition of invasion incubated for 24 hrs by matrigel trans well plate assay", "format": "functional, cell-based", "details": "dose 1-4 µM"}, "U-251 [31]": {"tested_on": "U-251", "experiment": "Induction of apoptosis in human U-251 cells assessed as increase in ROS generation at 1 to 4 uM incubated for 48 hrs […] relative to control", "format": "functional, cell-based", "details": "dose 1-4 µM"}, "U-87 MG [32]": {"tested_on": "U-87 MG", "experiment": "Cell cycle arrest in human U-87 MG cells assessed as accumulation at G2/M phase at 8 uM incubated for 48 hrs by PI staining based flow cytometry assay (reference value: 8%)", "format": "functional, U-87MG ATCC"}, "[33]": {"experiment": "Tmax in Sprague-Dawley rat at 60 mg/kg, ip measured up to 24 hrs by LC-MS analysis", "format": "ADME, organism-based", "details": "in vivo"}, "C6 [34]": {"tested_on": "C6", "experiment": "Antitumor activity against rat C6 cells inoculated orthotopic Sprague-Dawley rat model assessed as decrease in VEGF-A in tumor tissue at 50 mg/kg, ip twice a day treated 3 days after tumor cell injection measured for 13 days after tumor implantation by Western blot analysis", "format": "functional, organism-based", "details": "time 3.0 day"}, "[35]": {"experiment": "Toxicity in rat C6 cells inoculated orthotopic Sprague-Dawley rat model assessed as autonomic movement at 50 mg/kg, ip twice a day administered for 13 days of tumor implantation by open field test", "format": "organism-based", "details": "in vivo, 312 h, time 13 day"}}, "note": "Activity calls are given as the source filed them. No cut-off for these calls is given here.", "data": [{"smiles": "COc1cc(Nc2ccccc2C(=O)NCCc2c[nH]c3ccccc23)cc(OC)c1OC", "values": [{"measurement": "viability at 2 µM", "setting": "U-87 MG [1]", "value": 95.1, "unit": "%"}, {"measurement": "Activity", "setting": "U-251 [2]", "value": "Active"}, {"measurement": "inhibition in vivo at 50 mg/kg", "setting": "C6 [3]", "value": 66, "unit": "%"}, {"measurement": "Activity", "setting": "C6 [4]", "value": "Active"}, {"measurement": "concentration at 2 h", "setting": "[5]", "value": 520, "unit": "ng/mL"}, {"measurement": "Activity", "setting": "U-251 [6]", "value": 9.93, "unit": "%"}, {"measurement": "Activity", "setting": "U-251 [7]", "value": 7.24, "unit": "%"}, {"measurement": "viability at 4 µM", "setting": "U-87 MG [8]", "value": 88.5, "unit": "%"}, {"measurement": "Activity", "setting": "C6 [9]", "value": "Active"}, {"measurement": "viability at 4 µM", "setting": "U-251 [10]", "value": 65.5, "unit": "%"}, {"measurement": "Activity", "setting": "U-87 MG [11]", "value": 3.78, "unit": "%"}, {"measurement": "Cmax", "setting": "[12]", "value": 1150, "unit": "ng/mL"}, {"measurement": "inhibition", "setting": "[13]", "value": "Active"}, {"measurement": "Activity", "setting": "[14]", "value": "Non-Toxic"}, {"measurement": "Activity", "setting": "U-251 [15]", "value": "Active"}, {"measurement": "Activity", "setting": "U-87 MG [16]", "value": 13.8, "unit": "%"}, {"measurement": "Activity", "setting": "C6 [17]", "value": "Active"}, {"measurement": "concentration at 24 h", "setting": "[18]", "value": 200, "unit": "ng/mL"}, {"measurement": "IC50", "setting": "U-251 [19]", "value": 1.87, "unit": "µM"}, {"measurement": "Activity", "setting": "U-87 MG [20]", "value": 2.17, "unit": "%"}, {"measurement": "Activity", "setting": "C6 [21]", "value": 66, "unit": "%"}, {"measurement": "Activity", "setting": "U-87 MG [22]", "value": "Active"}, {"measurement": "Activity", "setting": "U-87 MG [23]", "value": 1.53, "unit": "%"}, {"measurement": "Activity", "setting": "U-251 [24]", "value": "Active"}, {"measurement": "inhibition", "setting": "BV-2", "value": "Active"}, {"measurement": "concentration at 2 h", "setting": "[25]", "value": 200, "unit": "ng/mL"}, {"measurement": "Activity", "setting": "U-251 [26]", "value": 4.28, "unit": "%"}, {"measurement": "IC50", "setting": "C6 [27]", "value": 4.23, "unit": "µM"}, {"measurement": "Activity", "setting": "C6 [28]", "value": "Active"}, {"measurement": "Activity", "setting": "U-251 [29]", "value": "Dose-Dependent Effect"}, {"measurement": "Activity", "setting": "U-251 [30]", "value": "Active"}, {"measurement": "Activity", "setting": "U-251 [31]", "value": "Active"}, {"measurement": "Activity", "setting": "U-87 MG [32]", "value": 68.2, "unit": "%"}, {"measurement": "Tmax", "setting": "[33]", "value": 25.2, "unit": "min"}, {"measurement": "Activity", "setting": "C6 [34]", "value": "Active"}, {"measurement": "Activity", "setting": "[35]", "value": "Non-Toxic"}]}]}
